Experimental data reported in patent US20230340498A1, “COMPOSITIONS AND METHODS FOR INDUCIBLE ALTERNATIVE SPLICING REGULATION OF GENE EXPRESSION” (The Children's Hospital of Philadelphia, priority 2020, published 2023).

Assays:
SF3B3-on-eGFP cassette = SF3B3-on-eGFP cassette expression in HEK293 cells; format: cell-based, Human; conditions: LMI070 vs DMSO
Protocol: Cell culture, transfection, and LMI070/RG7800 treatment. Human embryonic kidney (HEK293) cells (obtained from CHOP Research Vector Core stock) were maintained in DMEM media containing 10% Fetal Bovine Serum (FBS), 1% L-Glutamine and 1% penicillin/streptomycin at 37° C. with 5% CO2. Cells were cultured in 24 well plates and transfected at 80-90% confluence using Lipofectamine 2000 transfection reagent, according to the manufacturer’s protocol. For all experiments, 4 hours after plasmid transfection, cells were treated with LMI070 (MedChemExpress, HY-19620, suspended in DMSO) or RG7800 (MedChemExpress, HY-101792A, suspended in H2O) at the indicated concentrations. Cells were tested for mycoplasma by Research Vector Core. None of the cells used in the study were listed in ICLAC database of commonly misidentified cell lines.
Next, a series of switch-on cassettes were developed from the top 4 LMI070-responsive exons found in the RNA-Seq dataset. […] HEK293 cells were transfected with the candidate cassettes, treated with LMI070, and luciferase activity or eGFP expression determined 24 h later. […] Similarly, eGFP expression was only detected in cells transfected with the SF3B3-on-eGFP cassette in response to LMI070 treatment (FIG. 3D).

AAV8.Xon.Epo = assay: In vivo induction of AAV8.Xon.Epo in C57Bl6 mice; conditions: 24 h after the last LMI070 dose
Excerpt: To assess the applicability of Xon for liver targeted therapies, AAV8.Xon.Epo and AAV8.Xon.SaCas9 vectors were generated and delivered to C57Bl6 and Ai14 reporter mice, respectively (FIGS. 7A, 7C, 7F).

HEK293 cells = assay: RNA-Seq of HEK293 cells treated with LMI070 for LMI070-induced splicing events; format: cell-based, Human; conditions: HEK293, 25 nM LMI070 for 12 hours
Protocol: Tables 1A-1E provide the genomic locations of candidate LMI070-induced exons and the frequency of events from RNA-Seq datasets. Summarized here are the differentially expressed candidate LMI070-induced splicing positions as identified by RNA-Seq of HEK293 cells treated with either DMSO or LMI070 (25 nM). All candidates shown were manually selected from a bioinformatically generated list of top hits based on their suitability for construction of an exon switching genomic minigene, their exclusivity to the LMI070 condition, and their minimal to undetectable levels in DMSO treated cells. The top 25 rows of each table indicate hits observed exclusively upon LMI070 exposure. The following 22 rows of each table indicate candidates where splicing was enriched but not totally exclusive to LMI070 treatment.
Table 1A provides the GRCh38 genomic positions used to create the splice event-containing genomic minigene, the GRCh38 genomic positions of the pseudoexon created by LMI070-induced splicing, the number of exon-exon junction spanning reads observed with DMSO treatment, and the number of exon-exon junctions spanning reads observed with LMI070 treatment. […]
RNA-Seq Methods. […] Splice junction output by STAR were quantified using a custom R script designed to identify splicing events unique to LMI070 treatment. Top ranking LMI070-exclusive splice events were manually assessed for their applicability to function as a splicing switch. […] Candidate splice events were visually evaluated using the Sashimi plot function available in IGV (Thorvaldsdottir et al., 2013; Katz et al., 2015).
Next, exons that were more sensitive to LMI070 to reduce non-target splice events were sought out. […] Reads obtained from 4 control and 4 LMI070 treated samples were aligned to the genome using the STAR aligner (Dobin & Gingeras, 2015) and splicing events exclusive to the LMI070 treated samples identified (FIGS. 2A and 2F-2N; Table 1). […]

[1] = test system: Ai14 reporter genomic locus; assay: In vivo AAVPHPeB SF3B3.Xon SaCas9 editing of Ai14 reporter locus in brain; conditions: Ai14 mice, tdTomato expression
Excerpt: To assess the applicability of Xon for brain targeted therapies, the SF3B3.Xon was packaged into AAVPHPeB vector to control the expression of SaCas9 protein and delivered to transgenic Ai14 reporter mice and BacHD mice (FIGS. 9A, 9C).

CC1(C)CC(Oc2ccc(-c3ccc(-c4cn[nH]c4)cc3O)nn2)CC(C)(C)N1 [LMI070, 5-(1H-Pyrazol-4-yl)-2-(6-((2,2,6,6-tetramethylpiperidin-4-yl)oxy)pyridazin-3-yl)phenol]
eGFP expression from SF3B3-on-eGFP cassette (SF3B3-on-eGFP cassette): only detected | induction of Mouse Epo and hematocrit levels (AAV8.Xon.Epo): Induction of Mouse Epo and hematocrit levels were detected | events evident in all treated and in one of the control untreated samples (HEK293 cells): 22 | events found exclusively and in all LMI070 treated samples (HEK293 cells): 23 | novel splicing events identified following LMI070 treatment (HEK293 cells; threshold average greater than 5 novel intron splicing events): 45 | editing of the Ai14 reporter genomic locus (brain) [1]: only observed on mice treated with LMI070
